Publication PMC8321240, “Cell-Type-Specific High Throughput Toxicity Testing in Human Midbrain Organoids” (Frontiers in Molecular Neuroscience, 2021)
Entries after “also recorded” stand apart in the source; their conditions may differ.

Key:
[1] = system: 2D-cultured midbrain dopaminergic (mDA) neurons; experiment: Viability of 2D-cultured mDA neurons (CellTiter-Glo 2.0) in the 2D vs 3D comparison; assay type: cell-based; conditions: Homo sapiens, Neuron, 2D mDA neurons, 48 h exposure from day 50
Description: To compare the toxic effects of compounds on AMOs and 2D-cultured midbrain dopaminergic neurons, we seeded and cultured both in parallel and generated them from the same smNPC starting cell population. For 2D dopaminergic neuron differentiation, smNPCs were seeded in 1% (v/v in KO-DMEM/F-12) Matrigel-coated 6-well plates and standard smNPC medium, following digestion by accutase as described above. From day 2 onwards, they were treated identically with the AMOs (i.e., they received the same media at the same timepoints). To work with the 2D dopaminergic neurons in a screening setting (and have the same plate format as the AMOs), we reseeded them to flat-bottom 96-well plates (“μCLEAR”, black, Greiner) at a density of 70,000 cells/well on day 48. On day 49, the medium of both 2D mDA neurons and 3D AMOs was exchanged to tox medium. The next day, we treated them with different concentrations (0.01, 0.1, 1, 10, 50, 100, 200, 500, and 1,000 μM; controls received the corresponding solvent at an amount equivalent to the highest compound concentration; n = 6 per concentration) of the compounds lindane (Sigma-Aldrich, in ethanol) and 6-hydroxydopamine hydrochloride (Sigma Aldrich, in DMSO) in tox medium. After 48 h of incubation, we measured the samples’ viability. For the AMOs, we used the CellTiter-Glo 3D cell viability assay as described above. We measured the 2D mDA neuron viability with the CellTiter-Glo 2.0 cell viability assay (Promega) according to the manufacturer’s instructions. In short, we brought the sample plates and reagents to room temperature for 30 min. We adjusted the media volume of the samples to 50 μl and added an equal volume (50 μl) of the CellTiter-Glo 2.0 reagent. We let the plate shake for 2 min at 900 rpm on a Thermomixer and then incubated them for 10 min at room temperature and protected from light. Immediately afterward, we measured the luminescence on a Synergy Mx plate reader. We outputted the results to Microsoft Excel and GraphPad Prism v9.0.1 for reformatting, plotting, and analysis. Data processing was performed as outlined for the CellTiter-Glo 3D-based viability assay above, except for the averaging of technical replicates, as measurements were performed directly in the culture plate without additional technical replicates.
All other data analysis steps including the statistical analysis to identify significant differences in toxicity between 2D and 3D (via multiple unpaired t-tests with the same parameters as above, corrected for using the Bonferroni-Dunn method, and considering padj <0.05 as significant), as well as dose-response curve fitting, were performed as described in detail above. The IC50 values were taken from the same regression/analysis as the dose-response curves.

[2] = system: automated midbrain organoids (AMOs); experiment: Viability of 3D AMOs (CellTiter-Glo 3D) in the 2D vs 3D comparison; assay type: cell-based, human; conditions: for IC50: Homo sapiens, 48 h exposure from day 50
Description: We cultured AMOs for 47 days in our automated system as described above. On day 47, we exchanged the organoid medium to a minimal tox medium (TM, consisting of DMEM/F-12 with 1% N2 supplement and 1% penicillin/streptomycin/glutamine) to reduce possible interference from antioxidants in the B27 media supplement. The next day, we treated the AMOs with the compounds from the library at a concentration of 100 μM in TM with some deviations due to solubility (see Supplementary Table 1 for a complete list of compounds including their final concentrations in the screen). DMSO control samples contained 0.5% (v/v) DMSO, which is equivalent to the amount of solvent in the samples that received compound treatment. After 48 h of incubation with the compounds, we either directly processed the organoids for the 48-h time point or renewed the compounds in TM once to achieve 96 h of incubation. Following either 48 or 96 h of compound incubation, we used the CellTiter-Glo 3D cell viability assay (Promega) to measure the viability of individual organoids, as previously described (Renner et al., [2020]). Briefly, the 96-well plates of AMOs and the reagents were brought to room temperature for 30 min. We adjusted the media volume of each well to 55 μl and added an equal volume (55 μl) of the CellTiter-Glo 3D reagent. Next, the samples were shaken on a Thermomixer (Eppendorf) at 900 rpm for 5 min and then incubated for 25 min at room temperature while protected from light. To minimize signal cross-talk between adjacent wells, we transferred the contents of the clear 96-well culture plates to white/opaque 384-well Lumitrac plates (Greiner) with two technical replicates (20 μl each) per sample, after the incubation. We recorded the luminescence immediately after the transfer using a Synergy Mx plate reader (BioTek). We outputted the results to Microsoft Excel for reformatting and then transferred them to GraphPad Prism v9.0.1 (Graphpad Software, Inc.) for plotting and statistical analysis.
To compare the toxic effects of compounds on AMOs and 2D-cultured midbrain dopaminergic neurons, we seeded and cultured both in parallel and generated them from the same smNPC starting cell population. For 2D dopaminergic neuron differentiation, smNPCs were seeded in 1% (v/v in KO-DMEM/F-12) Matrigel-coated 6-well plates and standard smNPC medium, following digestion by accutase as described above. From day 2 onwards, they were treated identically with the AMOs (i.e., they received the same media at the same timepoints). To work with the 2D dopaminergic neurons in a screening setting (and have the same plate format as the AMOs), we reseeded them to flat-bottom 96-well plates (“μCLEAR”, black, Greiner) at a density of 70,000 cells/well on day 48. On day 49, the medium of both 2D mDA neurons and 3D AMOs was exchanged to tox medium. The next day, we treated them with different concentrations (0.01, 0.1, 1, 10, 50, 100, 200, 500, and 1,000 μM; controls received the corresponding solvent at an amount equivalent to the highest compound concentration; n = 6 per concentration) of the compounds lindane (Sigma-Aldrich, in ethanol) and 6-hydroxydopamine hydrochloride (Sigma Aldrich, in DMSO) in tox medium. After 48 h of incubation, we measured the samples’ viability. For the AMOs, we used the CellTiter-Glo 3D cell viability assay as described above. We measured the 2D mDA neuron viability with the CellTiter-Glo 2.0 cell viability assay (Promega) according to the manufacturer’s instructions. In short, we brought the sample plates and reagents to room temperature for 30 min. We adjusted the media volume of the samples to 50 μl and added an equal volume (50 μl) of the CellTiter-Glo 2.0 reagent. We let the plate shake for 2 min at 900 rpm on a Thermomixer and then incubated them for 10 min at room temperature and protected from light. Immediately afterward, we measured the luminescence on a Synergy Mx plate reader. […]

[3] = system: automated midbrain organoids (AMOs); experiment: Dose-response analysis, ATP-based overall AMO viability; assay type: cell-based, human; conditions: 48 h + 6 days; for viability: 0.01-1,000 μM (rotenone up to 100 μM), both AMO lines
Description: AMOs were cultured as described above for 47 days. On day 47, we exchanged their medium to tox medium (TM), initially without the addition of any compounds. […] For each compound, we included n = 8 controls per compound treated with the corresponding solvent at an amount equivalent to the highest compound concentration. To assess viability and cell type-specific toxicity in parallel and under the same conditions, we treated all samples with the compounds for 48 h, then exchanged their medium to standard culture medium without compounds and maintained them for an additional 6 days before analysis to allow breakdown and removal of cellular debris. Organoid viability and cell type-specific toxicity were analyzed as described for the primary screens. Here, we acquired five confocal planes spaced 36.6 μm apart in our Operetta high content imager. The image analysis of the AMOs for cell type-specific toxicity assessment required minor adjustments to account for the individual properties of the staining. […] For Map2, we performed Gaussian smoothing with a width of 10 px and omitted the additional sliding parabola filter. The other steps were performed as outlined for the primary cell-type-specific toxicity screen. […] In detail: The dose-response series, including the individual solvent controls, was performed for every compound on a separate 96-well plate of AMOs with initially n = 8 organoids per concentration. […] Data processing, including normalizations, was performed for each individual compound/plate as outlined above for the primary screens. Significant differences between the Map2 and TH content were also determined in GraphPad Prism as described for the primary screen and with the same parameters (multiple comparisons were performed for the different concentrations instead of compounds).

[4] = system: TH+ dopaminergic and Map2+ general neurons in AMOs; experiment: Dose-response analysis, TH and Map2 content by high content imaging; assay type: cell-based, human; conditions: 48 h + 6 days; for Map2 content (general neurons) / TH content (dopaminergic neurons): 0.01-1,000 μM (rotenone up to 100 μM), both AMO lines; for TH levels compared to Map2 levels: dose-response, padj < 0.05
Description: All processing steps were conducted in an HTS-compatible automated liquid handling system (ALHS, a Biomek FXP liquid handling station). To quantify different cellular subpopulations within the AMOs, we employed our previously described (Renner et al., [2020], [2021b]) ALHS-compatible workflow for combined whole-mount staining and clearing, with minor modifications. We fixed the AMOs with 4% PFA (VWR) for 10–15 min and stained the entire aggregates with primary and secondary antibodies for 6 days each. The antibodies used in this study were as follows. Primary: mouse anti-Map2 (1:1,000, Merck Millipore, cat#: MAB3418) and rabbit anti-TH (1:500, Abcam, cat#: ab112). Secondary: donkey anti-mouse IgG, Alexa Fluor 488 conjugated (1:1,000, Thermo Fisher, cat#: A-21202) and donkey anti-rabbit IgG, Alexa Fluor 647 conjugated (1:1,000, Thermo Fisher, cat#: A-31573). The antibodies were diluted in blocking and permeabilization solution consisting of 6% BSA, 0.5% Triton-X 100 (Roth), 0.1% (w/v) sodium azide (Sigma-Aldrich) in PBS (Sigma-Aldrich) and immediately added after fixation following a triple rinse with PBS. We renewed the antibody solutions once after three days. As a nuclear counter stain, we added DAPI (1 μg/ml, Sigma-Aldrich) to the solution containing the secondary antibodies. Between primary and secondary antibody application and after finishing the secondary antibody incubation, we washed the samples overnight with 0.1% Triton X-100 in PBS, with a total of five exchanges of the washing solution. After the whole-mount staining, we performed BABB-based tissue clearing (Dent et al., [1989]) to allow image acquisition with single-cell resolution of the entire aggregates. For this purpose, we first dehydrated the AMOs via a stepwise methanol (Roth) series (25%, 50%, 70%, 90%, and 100%, each for 15 min). For clearing and imaging, we transferred them to organic solvent-resistant cyclo-olefin 96-well flat-bottom plates (“Screenstar”, Greiner Bio-One). Finally, we incubated the samples for 30 min in 1:1 (v/v) methanol/BABB (BABB consisted of benzyl alcohol (Sigma-Aldrich) and benzyl benzoate (Sigma-Aldrich) at a 1:1 (v/v) ratio) and then kept them in 100% BABB in the dark for storage and subsequent automated high content confocal fluorescent analysis.
We prepared and treated the AMOs with the compounds as described for the primary viability screen. On day 50, after 48 h of compound incubation, we replaced the medium with standard AMO medium and maintained the AMOs for 6 additional days under standard culture conditions. This additional time allows the cells killed by the compounds to be cleared from the aggregates. After the 6 days, we fixed the organoids with 4% PFA, whole-mount-stained them for TH and Map2, and tissue-cleared them as described above. To achieve uniform aggregate positioning within the wells before imaging, we tilted the plates off the horizontal plane at 60 degrees for a minimum of 5 min. We performed automated image acquisition of entire 96-well plates on an Operetta high content imager (Perkin Elmer) and analyzed images in the Harmony 4.1 software and/or Columbus version 2.6.0 as previously described (Renner et al., [2020]), with adjustments to account for the individual properties of the staining and samples. We acquired three medial planes for each organoid, spaced 36.6 μm apart to avoid double-sampling individual morphological features. For the analysis, we defined the organoid region in each image by summing all channels, removed small localized features with a median filter (10 px), and identified putative organoids/regions of interest (ROIs) with the “find image region” function. To identify bona fide AMOs and exclude image artifacts and dust, we selected the ROIs with an area >9,000 μm^2, roundness >0.4, and mean DAPI intensity >190 arbitrary brightness units (abu).

[5] = system: TH+ dopaminergic and Map2+ general neurons in AMOs; experiment: Primary cell-type-specific toxicity screen (whole-mount TH/Map2 staining, high content imaging); assay type: cell-based, human; conditions: approx. 100 μM, 48 h + 6 days, shared between both AMO lines, padj < 0.05
Description: All processing steps were conducted in an HTS-compatible automated liquid handling system (ALHS, a Biomek FXP liquid handling station). To quantify different cellular subpopulations within the AMOs, we employed our previously described (Renner et al., [2020], [2021b]) ALHS-compatible workflow for combined whole-mount staining and clearing, with minor modifications. We fixed the AMOs with 4% PFA (VWR) for 10–15 min and stained the entire aggregates with primary and secondary antibodies for 6 days each. The antibodies used in this study were as follows. Primary: mouse anti-Map2 (1:1,000, Merck Millipore, cat#: MAB3418) and rabbit anti-TH (1:500, Abcam, cat#: ab112). Secondary: donkey anti-mouse IgG, Alexa Fluor 488 conjugated (1:1,000, Thermo Fisher, cat#: A-21202) and donkey anti-rabbit IgG, Alexa Fluor 647 conjugated (1:1,000, Thermo Fisher, cat#: A-31573). The antibodies were diluted in blocking and permeabilization solution consisting of 6% BSA, 0.5% Triton-X 100 (Roth), 0.1% (w/v) sodium azide (Sigma-Aldrich) in PBS (Sigma-Aldrich) and immediately added after fixation following a triple rinse with PBS. We renewed the antibody solutions once after three days. As a nuclear counter stain, we added DAPI (1 μg/ml, Sigma-Aldrich) to the solution containing the secondary antibodies. Between primary and secondary antibody application and after finishing the secondary antibody incubation, we washed the samples overnight with 0.1% Triton X-100 in PBS, with a total of five exchanges of the washing solution. […]
We prepared and treated the AMOs with the compounds as described for the primary viability screen. […] We performed automated image acquisition of entire 96-well plates on an Operetta high content imager (Perkin Elmer) and analyzed images in the Harmony 4.1 software and/or Columbus version 2.6.0 as previously described (Renner et al., [2020]), with adjustments to account for the individual properties of the staining and samples. […]

[6] = system: automated midbrain organoids (AMOs); experiment: Primary organoid viability screen (ATP-based CellTiter-Glo 3D); assay type: cell-based, human; conditions: approx. 100 μM, 48 or 96 h, two AMO lines
Description: We cultured AMOs for 47 days in our automated system as described above. On day 47, we exchanged the organoid medium to a minimal tox medium (TM, consisting of DMEM/F-12 with 1% N2 supplement and 1% penicillin/streptomycin/glutamine) to reduce possible interference from antioxidants in the B27 media supplement. The next day, we treated the AMOs with the compounds from the library at a concentration of 100 μM in TM with some deviations due to solubility (see Supplementary Table 1 for a complete list of compounds including their final concentrations in the screen). DMSO control samples contained 0.5% (v/v) DMSO, which is equivalent to the amount of solvent in the samples that received compound treatment. After 48 h of incubation with the compounds, we either directly processed the organoids for the 48-h time point or renewed the compounds in TM once to achieve 96 h of incubation. […] We recorded the luminescence immediately after the transfer using a Synergy Mx plate reader (BioTek). […]
In detail: All compounds including their controls were arrayed on a single 96-well plate (see Supplementary Table 1 for well positions), and replicated across three plates for a total of n = 3 replicates per condition (except AMO line 2 at 48 h n = 2). […] During our analysis, we first averaged the two technical replicates from the luminescence measurement in Microsoft Excel, yielding one averaged luminescence value for each well of the original 96-well AMO plates. Then, we normalized the luminescence detected in each well to the mean luminescence of the four DMSO controls of the same plate to get a relative organoid viability value. Normalization was performed separately for each plate to account for and correct for potential differences during the luminescence measurements. […] We further assessed the homogeneity of the AMOs by calculating the coefficient of variation (CV) for the relative viabilities of the DMSO controls (i.e., we divided the standard deviations by the corresponding means and averaged the resulting CV values for the DMSO controls). […]

| SMILES | Map2 content (general neurons) [4] | TH content (dopaminergic neurons) [4] | significant difference in reduction between TH and Map2 (dopaminergic neuron-specific toxicity) [5] | viability [3] | TH levels compared to Map2 levels [4] | further results |
| --- | --- | --- | --- | --- | --- | --- |
| Cl.NCCc1cc(O)c(O)cc1O [6OHDA, 6-hydroxydopamine hydrochloride, reference compound] |  |  |  |  |  | IC50 ([1]; AMO line 1 cell line): 44.2 µM; IC50 ([1]; AMO line 2 cell line): 65 µM; IC50 ([2]; AMO line 1, 3D): 315 µM; IC50 ([2]; AMO line 2, 3D): 269 µM; toxicity in 3D AMOs compared with 2D-cultured dopaminergic neurons ([2]; both cell lines, 48 h, 0.01-1,000 μM, padj < 0.05): significantly stronger toxic effect in 2D than 3D |
| CC(=O)Oc1ccccc1C(=O)O [ASS, acetylsalicylic acid, reference compound] | no impact | no impact |  |  |  | overall toxicity in the dose-response experiments ([3]; 0.01-1,000 μM, viability, Map2 and TH readouts): no significant changes at any of the tested concentrations; also recorded: non-toxic across all tested concentrations |
| COc1ccc2cc3[n+](cc2c1OC)CCc1cc2c(cc1-3)OCO2 [BC, berberine chloride] | strongly reduced | strongly reduced | statistically significant difference in reduction between TH and Map2 | strongly reduced | significantly reduced TH levels compared to Map2 over a broad range of concentrations |  |
| Oc1c(Cl)cc(Cl)c(Cl)c1Cc1c(O)c(Cl)cc(Cl)c1Cl [HCP, hexachlorophene] | strongly reduced | strongly reduced |  | strongly reduced |  | toxicity in the primary screens [6]: highly toxic |
| CC(C)(c1cc(Br)c(O)c(Br)c1)c1cc(Br)c(O)c(Br)c1 [TBBPA, 3,3′,5,5′-tetrabromobisphenol A] | strongly reduced | strongly reduced | statistically significant difference in reduction between TH and Map2 | strongly reduced | significantly reduced TH levels compared to Map2 over a broad range of concentrations |  |
| [CH3][Hg][Cl] [methyl mercuric (II) chloride] |  |  | statistically significant difference in reduction between TH and Map2 |  |  |  |
| C=C(C)[C@H]1Cc2c(ccc3c2O[C@@H]2COc4cc(OC)c(OC)cc4[C@@H]2C3=O)O1 [rotenone, reference compound] |  |  |  |  | significantly reduced TH levels compared to Map2 over a broad range of concentrations |  |
